Reference: US11634451B2, “Method for the site-specific enzymatic labelling of nucleic acids in vitro by incorporation of unnatural nucleotides” (The Scripps Research Institute, priority 2013, dated 2023)
Marks after values point to notes of the source that are not given here.

Tests used:
Taq polymerase = biological target: T1, Taq polymerase (Thermus aquaticus, UniProt P19821); assay: PCR-based screen and amplification of DNA containing unnatural base pairs, Taq (Example 1); format: biochemical
T1 construct: purchased New England Biolabs (Ipswich, Mass.)
T1 sequence (P19821 whole entry): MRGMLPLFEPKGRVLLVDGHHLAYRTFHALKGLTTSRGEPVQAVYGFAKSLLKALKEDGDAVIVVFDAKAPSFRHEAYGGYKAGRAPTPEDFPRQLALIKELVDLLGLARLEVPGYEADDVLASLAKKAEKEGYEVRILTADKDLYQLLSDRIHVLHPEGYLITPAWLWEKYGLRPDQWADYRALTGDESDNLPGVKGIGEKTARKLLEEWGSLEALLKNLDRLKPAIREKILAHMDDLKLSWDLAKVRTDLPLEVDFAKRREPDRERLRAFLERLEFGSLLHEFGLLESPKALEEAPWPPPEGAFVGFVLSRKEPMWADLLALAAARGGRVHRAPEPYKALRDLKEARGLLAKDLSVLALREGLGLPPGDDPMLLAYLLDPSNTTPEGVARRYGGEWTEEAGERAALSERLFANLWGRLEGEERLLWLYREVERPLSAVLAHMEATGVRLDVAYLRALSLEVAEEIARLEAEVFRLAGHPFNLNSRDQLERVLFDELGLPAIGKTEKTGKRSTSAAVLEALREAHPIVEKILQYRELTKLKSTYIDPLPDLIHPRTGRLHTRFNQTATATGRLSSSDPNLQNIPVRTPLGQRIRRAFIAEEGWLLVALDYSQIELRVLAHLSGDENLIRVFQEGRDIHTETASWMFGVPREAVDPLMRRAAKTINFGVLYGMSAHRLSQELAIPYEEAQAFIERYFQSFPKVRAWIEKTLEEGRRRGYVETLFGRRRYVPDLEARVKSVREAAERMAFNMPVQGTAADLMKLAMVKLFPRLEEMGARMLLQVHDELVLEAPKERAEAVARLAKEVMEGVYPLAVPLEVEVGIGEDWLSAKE
Protocol: (§1) The triphosphates of the 6 group were prepared from the previously reported nucleosides (Kubelka, T., Slavetinska, L., Eigner, V. and Hocek, M. Synthesis of 2,6-disubstituted pyridin-3-yl C-2′-deoxyribonucleosides through chemoselective transformations of bromo-chloropyridine C-nucleosides. Org. Biomol. Chem., 11, 4702-4718) according to Ludwig, J. and Eckstein, F. Rapid and efficient synthesis of nucleoside 5′-0-(1-thiotriphosphates), 5′-triphosphates and 2′,3′-cyclophosphorothioates using 2-chloro-4H-1,3,2-benzodioxaphosphorin-4-one. J. Org. Chem., 54, 631-635. The purity of all other triphosphates was confirmed by MALDI-TOF and UV-VIS. Taq and OneTaq DNA polymerases were purchased from New England Biolabs (Ipswich, Mass.). A mixture of dNTPs was purchased from Fermentas (Glen Burnie, Md.). SYBR Green I Nucleic Acid Gel Stain (10,000×) was purchased from Life Technologies (Carlsbad, Calif.). The synthesis of the DNA templates, D8 (Malyshev, D. A., Dhami, K., Quach, H. T., Lavergne, T., Ordoukhanian, P., Torkamani, A. and Romesberg, F. E. Efficient and sequence-independent replication of DNA containing a third base pair establishes a functional six-letter genetic alphabet. Proc. Natl. Acad. Sci. USA, 109, 12005-12010), used for screening rounds 1-5, and D6 (Malyshev, D. A., Seo, Y. J., Ordoukhanian, P. and Romesberg, F. E. PCR with an expanded genetic alphabet. J. Am. Chem. Soc., 131, 14620-14621), used for all other amplifications, was described previously. Sanger sequencing was carried out as described previously (Malyshev, D. A., Dhami, K., Quach, H. T., Lavergne, T., Ordoukhanian, P., Torkamani, A. and Romesberg, F. E. Efficient and sequence-independent replication of DNA containing a third base pair establishes a functional six-letter genetic alphabet. Proc. Natl. Acad. Sci. USA, 109, 12005-12010). Raw Sanger sequencing traces were used to determine the percent retention of the unnatural base pairs, which was converted to fidelity per doubling, as described (Malyshev, D. A., Dhami, K., Quach, H. T., Lavergne, T., Ordoukhanian, P., Torkamani, A. and Romesberg, F. E. Efficient and sequence-independent replication of DNA containing a third base pair establishes a functional six-letter genetic alphabet. Proc. Natl. Acad. Sci. USA, 109, 12005-12010; Malyshev, D. A., Seo, Y. J., Ordoukhanian, P. and Romesberg, F. E. PCR with an expanded genetic alphabet. J. Am. Chem. Soc., 131, 14620-14621).
(§2) All PCR amplifications were performed in a CFX Connect Real-Time PCR Detection System (Bio-Rad), in a total volume of 25 μL using the following conditions: 1× OneTaq reaction buffer, 0.5× Sybr Green I, MgSO4 adjusted to 4.0 mM, 0.2 mM of each dNTP, 50 μM of each unnatural triphosphate, […] of Primer1 and Primer2 (See Table 2), and 0.02 U/μl of the DNA polymerase. Other conditions specific for each round of screening are described in Table 3. Amplified products were purified using DNA Clean and Concentrator-5 spin columns from Zymo Research (Irvine, Calif.). After purification, the PCR products were sequenced on a 3730 DNA Analyzer (Applied Biosystems) to determine the retention of the unnatural base pair as described below. Fidelity was characterized from unnatural base pair (UBP) retention as determined by sequencing with Primer1 on a 3730 DNA Analyzer (Applied Biosystems).
(§3) Specific PCR assay conditions. PCR with the most promising UBPs was carried out with the conditions as described in Table 3. PCR products were further purified on […] gels, followed by single band excision and subsequent clean up using the Zymo Research Zymoclean Gel DNA Recovery Kit. After elution with 20 μl of water, the DNA concentration was measured using fluorescent dye binding (Quant-iT dsDNA HS Assay kit, Life Technologies), and purified amplicons were sequenced in triplicate with both Primer1 and Primer2 to determine UBP retention and thus amplification fidelity. […]

OneTaq polymerase = assay: PCR-based screen and amplification of DNA containing unnatural base pairs, OneTaq (Example 1); format: biochemical; details: for Amplification: -^a = no amplification was detected
Protocol: as §1, §2, §3

[1] = ^a 100 pg D8 template, 16 cycles, Taq polymerase, 68° C. for 60 s
[2] = ^b 10 pg D6 template, 24 cycles, OneTaq polymerase, 68° C. for 10 s
[3] = OneTaq, 16 cycles, 1 min extension
[4] = Taq, 10 s Extension, 52 cycles, D6 template
[5] = OneTaq, 1 min Extension, 52 cycles, D6 template

COc1cc2ccccc2cc1[C@H]1C[C@H](O)[C@@H](COP(=O)(O)OP(=O)(O)OP(=O)(O)O)O1.O=P(O)(O)OP(=O)(O)OP(=O)(O)OC[C@H]1O[C@@H](n2ccc3ccccc3c2=S)C[C@@H]1O [SICS-NaM]
Retention, % (Taq polymerase; [1]): 99^a %

COc1cc(Cl)ccc1[C@H]1C[C@H](O)[C@@H](COP(=O)(O)OP(=O)(O)OP(=O)(O)O)O1.O=P(O)(O)OP(=O)(O)OP(=O)(O)OC[C@H]1O[C@@H](n2ccc3ccsc3c2=S)C[C@@H]1O [TPT3-CIMO]
Retention, % (OneTaq polymerase; [2]): 90^b %

Cc1ccc([C@H]2C[C@H](O)[C@@H](COP(=O)(O)OP(=O)(O)OP(=O)(O)O)O2)c(Cl)n1.O=P(O)(O)OP(=O)(O)OP(=O)(O)OC[C@H]1O[C@@H](n2ccc3ccsc3c2=S)C[C@@H]1O [TPT3-TOK580]
Fidelity, % (OneTaq polymerase; [3]): <85 ^b %
Retention, % (OneTaq polymerase; [3]): <50 ^b %
Amplification (OneTaq polymerase; [3]): 1056
Retention, % (OneTaq polymerase; OneTaq, 16 cycles, 1 min extension, listed as dTPT3-dTOK580): poorly replicated

COc1cc2ccccc2cc1[C@H]1C[C@H](O)[C@@H](COP(=O)(O)OP(=O)(O)OP(=O)(O)O)O1.O=P(O)(O)OP(=O)(O)OP(=O)(O)OC[C@H]1O[C@@H](n2ccc3ncccc3c2=S)C[C@@H]1O [SNICS-NaM]
Retention, % (Taq polymerase; [1]): 90^a %

CSc1nc(C)ccc1[C@H]1C[C@H](O)[C@@H](COP(=O)(O)OP(=O)(O)OP(=O)(O)O)O1.O=P(O)(O)OP(=O)(O)OP(=O)(O)OC[C@H]1O[C@@H](n2ccc3ccsc3c2=S)C[C@@H]1O [TPT3-TOK588]
Fidelity, % (OneTaq polymerase; [3]): 94.99 ± 1.13%
Retention, % (OneTaq polymerase; [3]): 61.98 ± 7.09%
Amplification (OneTaq polymerase; [3]): 666
Retention, % (OneTaq polymerase; OneTaq, 16 cycles, 1 min extension, listed as dTPT3-dTOK588): 62%

COc1cc(I)ccc1[C@H]1C[C@H](O)[C@@H](COP(=O)(O)OP(=O)(O)OP(=O)(O)O)O1.O=P(O)(O)OP(=O)(O)OP(=O)(O)OC[C@H]1O[C@@H](n2cc(F)c3ccsc3c2=S)C[C@@H]1O [FTPT3-IMO]
Amplification, ×10^12 (Taq polymerase; [4]): 5.6 ×10^12
Fidelity per Doubling, % (Taq polymerase; [4]): 99.54 ± 0.13%
Retention, % (Taq polymerase; [4]): 82 ± 5%
Amplification, ×10^12 (OneTaq polymerase; [5]): 7.1 ×10^12
Fidelity per Doubling, % (OneTaq polymerase; [5]): 99.38 ± 0.05%
Retention, % (OneTaq polymerase; [5]): 76.8 ± 1.6%

COc1cc(I)c(F)cc1[C@H]1C[C@H](O)[C@@H](COP(=O)(O)OP(=O)(O)OP(=O)(O)O)O1.O=P(O)(O)OP(=O)(O)OP(=O)(O)OC[C@H]1O[C@@H](n2cc(F)c3ccsc3c2=S)C[C@@H]1O [FTPT3-FIMO]
Amplification, ×10^12 (Taq polymerase; [4]): 4.8 ×10^12
Fidelity per Doubling, % (Taq polymerase; [4]): 99.60 ± 0.09%
Retention, % (Taq polymerase; [4]): 84 ± 3%
Amplification, ×10^12 (OneTaq polymerase; [5]): 8.2 ×10^12
Fidelity per Doubling, % (OneTaq polymerase; [5]): 99.65 ± 0.08%
Retention, % (OneTaq polymerase; [5]): 86 ± 3%

Cc1ccc([C@H]2C[C@H](O)[C@@H](COP(=O)(O)OP(=O)(O)OP(=O)(O)O)O2)c(N)n1.O=P(O)(O)OP(=O)(O)OP(=O)(O)OC[C@H]1O[C@@H](n2ccc3ccsc3c2=S)C[C@@H]1O [TPT3-TOK586]
Fidelity, % (OneTaq polymerase; [3]): <85 ^b %
Retention, % (OneTaq polymerase; [3]): <50 ^b %
Amplification (OneTaq polymerase; [3]): 948
Retention, % (OneTaq polymerase; OneTaq, 16 cycles, 1 min extension, listed as dTPT3-dTOK586): poorly replicated

COc1cc2ccccc2cc1[C@H]1C[C@H](O)[C@@H](COP(=O)(O)OP(=O)(O)OP(=O)(O)O)O1.O=P(O)(O)OP(=O)(O)OP(=O)(O)OC[C@H]1O[C@@H](n2cc(F)c3ccsc3c2=S)C[C@@H]1O [FTPT3-NaM]
Amplification, ×10^12 (Taq polymerase; [4]): 3.7 ×10^12
Fidelity per Doubling, % (Taq polymerase; [4]): 99.76 ± 0.15%
Retention, % (Taq polymerase; [4]): 91 ± 6%
Amplification, ×10^12 (OneTaq polymerase; [5]): 7.0 ×10^12
Fidelity per Doubling, % (OneTaq polymerase; [5]): 99.76 ± 0.06%
Retention, % (OneTaq polymerase; [5]): 90 ± 2%

COc1ccc([C@H]2C[C@H](O)[C@@H](COP(=O)(O)OP(=O)(O)OP(=O)(O)O)O2)c(OC)c1.O=P(O)(O)OP(=O)(O)OP(=O)(O)OC[C@H]1O[C@@H](n2ccc3ccsc3c2=S)C[C@@H]1O [TPT3-DMO]
Fidelity, % (OneTaq polymerase; [3]): 98.23 ± 0.23%
Retention, % (OneTaq polymerase; [3]): 84.02 ± 1.92%
Amplification (OneTaq polymerase; [3]): 864

COc1cc(N=[N+]=[N-])ccc1[C@H]1C[C@H](O)[C@@H](COP(=O)(O)OP(=O)(O)OP(=O)(O)O)O1.O=P(O)(O)OP(=O)(O)OP(=O)(O)OC[C@H]1O[C@@H](n2cc(F)c3ccsc3c2=S)C[C@@H]1O [FTPT3-ZMO]
Retention, % (Taq polymerase; [1]): 88^a %

COc1cc(C)ccc1[C@H]1C[C@H](O)[C@@H](COP(=O)(O)OP(=O)(O)OP(=O)(O)O)O1.O=P(O)(O)OP(=O)(O)OP(=O)(O)OC[C@H]1O[C@@H](n2ccc3ccsc3c2=S)C[C@@H]1O [TPT3-MMO2]
Fidelity, % (OneTaq polymerase; [3]): 99.06 ± 0.40%
Retention, % (OneTaq polymerase; [3]): 90.95 ± 3.63%
Amplification (OneTaq polymerase; [3]): 1096

C#Cc1cc(OC)c([C@H]2C[C@H](O)[C@@H](COP(=O)(O)OP(=O)(O)OP(=O)(O)O)O2)cc1F.O=P(O)(O)OP(=O)(O)OP(=O)(O)OC[C@H]1O[C@@H](n2ccc3ccccc3c2=S)C[C@@H]1O [SICS-FEMO]
Retention, % (OneTaq polymerase; [2]): 92^b %

COc1cc(I)ccc1[C@H]1C[C@H](O)[C@@H](COP(=O)(O)OP(=O)(O)OP(=O)(O)O)O1.O=P(O)(O)OP(=O)(O)OP(=O)(O)OC[C@H]1O[C@@H](n2ccc3ncccc3c2=S)C[C@@H]1O [SNICS-IMO]
Retention, % (OneTaq polymerase; [2]): 88^b %

C#Cc1cc(OC)c([C@H]2C[C@H](O)[C@@H](COP(=O)(O)OP(=O)(O)OP(=O)(O)O)O2)cc1F.O=P(O)(O)OP(=O)(O)OP(=O)(O)OC[C@H]1O[C@@H](n2ccc3ncccc3c2=S)C[C@@H]1O [SNICS-FEMO]
Retention, % (OneTaq polymerase; [2]): 95^b %

COc1cc(N=[N+]=[N-])ccc1[C@H]1C[C@H](O)[C@@H](COP(=O)(O)OP(=O)(O)OP(=O)(O)O)O1.O=P(O)(O)OP(=O)(O)OP(=O)(O)OC[C@H]1O[C@@H](n2ccc3ccsc3c2=S)C[C@@H]1O [TPT3-ZMO]
Retention, % (OneTaq polymerase; [2]): 86^b %

CSc1ccc(C2CC(O)C(CO)O2)c(SC)n1.OCC1OC(n2ccc3ccsc3c2=S)CC1O (stereo not shown) [TPT3-TOK576]
Fidelity, % (OneTaq polymerase; [3]): 98.35 ± 0.14%
Retention, % (OneTaq polymerase; [3]): 85.20 ± 1.12%
Amplification (OneTaq polymerase; [3]): 780
Retention, % (OneTaq polymerase; OneTaq, 16 cycles, 1 min extension, listed as dTPT3-dTOK576): 85%

COc1cc(C#N)ccc1[C@H]1C[C@H](O)[C@@H](COP(=O)(O)OP(=O)(O)OP(=O)(O)O)O1.O=P(O)(O)OP(=O)(O)OP(=O)(O)OC[C@H]1O[C@@H](n2cc(F)c3ccsc3c2=S)C[C@@H]1O [FTPT3-CNMO]
Retention, % (Taq polymerase; [1]): 94^a %
